Assay [1] deals with T1, Src (p60^c-src) (Homo sapiens, UniProt P12931).
T1 construct: purchased Upstate (UBI)
Put plainly: SRC-Inhibitor-Assay (time-resolved fluorescence kinase assay). The format is biochemical. The settings on record: ATP 5 μM; enzyme pre-incubated with inhibitor 15 min at 15° C. As for the experimental part: SRC-Inhibitor-Assay Parameters:
Assay buffer: 4 mM MgCl2 • 2 mM TCEP • 50 mM HEPES • 0.1% Tween 20 • pH 7.3
Inhibitor: max. 25 μM • min. 0.42 nM Material:
Eu-labelled phosphotyrosine antibody:—for Lck Cisbio Mab PT66-K, • for Src EG&G Wallac PT66 Eu-W1024 (all commercially available).
Peptides: Ro: NH2-A-E-E-E-I-Y-G-E-F-E-A-K-K-K-K-CONH2 (SEQ ID NO: 1), and Ja133-Ro: Ja133-G-Aminocaprylic acid-A-E-E-E-I-Y-G-E-F-E-A-K-K-K-K-CONH2 (SEQ ID NO: 2) wherein Ja133 is LightCycler-Red 640-N-hydroxy succinimide ester; whereby both peptides were synthesized by an optimized solid phase peptide synthesis protocol (Merrifield, Fed. Proc. Fed. Amer. Soc. Exp. Biol. 21 (1962) 412) on a Zinsser SMP350 peptide synthesizer. Shortly, the peptide was assembled on 160 mg (22.8 μmol scale) of a Rink-Linker modified polystyrene solid phase by repeatedly conjugating an twenty fold excess of aminoacids each protected by temporary piperidine labile Fmoc- and permanent acid labile tert-Bu-, BOC- and Otert-Bu-groups depending on the side chain function. The substrate sequence AEEEIYGEFEAKKKK (SEQ ID NO: 1) was N-terminal additionally mounted with the spacer amino acids Aminocaprylic acid and Glycin. After cleavage of the N-terminal temporary protecting group the still attached and protected peptide was labeled with a 1.5 fold amount of LightCycler-Red 640-N-hydroxy succinimide ester (purchased by Roche Diagnostics GmbH) and triethylamine. After 3 hrs. the resin was washed with Dimethylformamide and Isopropanol until the eluates of the blue resin got colourless. […] The substrate was finally isolated by a preparative reverse phase HPLC purification. The purification yielded 12.2 mg RP-HPLC single peak pure blue material (lyophilisate). The identity was proven by MALDI mass spectroscopy [2720.0].
Enzymes: Upstate Lck (p56^lck, active), Upstate Src (p60^c-src, partially purified) were purchased from UBI.
Time-resolved Fluorescence Assay: Reader: Perkin Elmer, Wallac Viktor 1420-040 multilabel counter; Liquid handling system: Beckman Coulter, Biomek 2000.
ATP, Tween 20, HEPES were purchased from Roche Molecular Biochemicals, MgCl2 and MnCl2 were purchased from Merck Eurolab, TCEP was purchased from Pierce, 384 Well low volume fluorescence plates was purchased from Falcon.
At first the enzyme is pre-incubated for 15 min. at 15° C. in aqueous solution with corresponding amounts of inhibitors according to this invention. Then the phosphorylation reaction is started by adding a reaction mixture, containing ATP, Peptide and PT66, and subsequent shaking. The proceeding of this reaction is immediately monitored using time resolved fluorescence spectroscopy in a suitable well plate reader.
The IC50-values can be obtained from the reaction rates by using a non-linear curve fit (Excelfit).

For assay [2], the target named is T2, c-met (Homo sapiens, UniProt P08581).
T2 construct: Cell lysate of human colon adenocarcinoma HT29 known for its high content of c-met; endogenous in cells; host or cells: HT29 (ATCC HTB-38), human colon adenocarcinoma
Put plainly: C-met-Inhibitor-Assay (ELISA type assay measuring phosphorylation of c-met from HT29 cell lysate). The settings on record: ATP final conc. 40 μM, 60 min at room temperature. The format is biochemical. The source says:
C-met-Inhibitor-Assay: Assay Principle
C-met is a typical tyrosine kinase which is involved in metastasis, proliferation/apoptosis and angiogenesis of tumors. The assay is an ELISA type assay measuring the phosphorylation of c-met using a phospho-tyrosine specific antibody.
Cell lysate of human colon adenocarcinoma HT29 known for its high content of c-met is bound to the wells of a microtiterplate (MTP) via an anti-hHGF receptor antibody (anti-hHGFR). ATP-phosphorylation of c-met is detected in presence or absence of the test compounds by using a phospho-tyrosine mouse IgG and a POD labeled goat anti-mouse IgG detection system. Using the classical POD substrate TMB, an absorption at 450 nm/620 nm is used to calculate enzymatic activity.
Plates: 96-well polystyrene plates (NUNC) streptavidin-coated microtiter plates Cell line/Lysate: HT29 (ATCC HTB-38), human colon adenocarcinoma (confluence: 2.5×10^5 cells/cm^2) are washed with PBS and incubated with Lysis buffer for 10 min on ice. Supernatent is collected and diluted with TBS. Lysate is shockfrozen in liquid nitrogen and stored at −80° C.)
Reagents (all working solutions are kept at 4° C., unless stated otherwise): • anti-hHGFR detection stock solution: 50 μg/ml (R&D Systems, Cat.No. BAF 358) antibody final conc.: 1 μg/ml • p-Tyr (PY99) mouse stock solution: 200 μg/ml (Santa Cruz Biotechnology, monoclonal IgG2b Cat.No. SC-7020) final conc.: 0.2 μg/ml • goat-anti-mouse IgG: 2 ml (BIO RAD, Cat.No. 170-6516) • (H+L)-HRP Conjugate; final conc.: 1:2000 • Blocking Reagent: Roche Diagnostics GmbH, Cat.No.1112589 for ELISA diluted 1:10 in TBS • ATP: Adenosine-5′-triphosphate, stock solution 10 mM, stock solution 10 mM (Roche • Diagnostics GmbH, Cat.No. 127531) final conc.: 40 μM • TBS: Tris-buffered saline, 50 mM TRIS pH 7.5 (Roche Diagnostics GmbH, Cat.No. 708976), 150 mM NaCl (SIGMA, Cat.No. S-3014) • Wash buffer TBS-T: Tris-buffered saline, 50 mM TRIS pH 7.5 150 mM NaCl, containing 0.5% Tween20 • Kinase buffer: Tris-buffered saline, 50 mM TRIS pH 7.5, 100 mM NaCl, 60 mM MgCl2 (SIGMA Chemical Company, Cat.No. M-1028) • Lysis buffer: 50 mM TRIS pH 7.5 containing 1% Nonidet P40 (Roche Diagnostics GmbH, Cat.No.1754599) 0.5% Deoxycholic acid (SIGMA Chemical Company, Cat.No. D-6750) • final conc.: 1 mM 1 mM PMSF stock solution 70 mM (Roche Diagnostics GmbH, • Cat.No.837091 40 μl/ml Complete (Roche Diagnostics GmbH, Cat.No. 1836145) Final conc.: 40 μl/ml • TMB: Tetramethylbenzidine (Intergen Company, Cat.No. 91000) • Samples: 10 mM in DMSO (stored at −20° C.), thawed at room temperature
Procedure: • Add 50 μl of anti-hHGFR detection antibody in blocking reagent to assay plate (final conc. 1 μg/ml), incubate assay plate for 60 min at room temperature on an MTP shaker. • Remove anti-hHGFR detection antibody solution from assay plate. • Add 250 μl blocking reagent per well to assay plate, incubate assay plate for 20 h, at 4° C. • Remove blocking reagent from assay plate. • Add 50 μl of HT29 lysate, incubate assay plate for 180 min, at 4° C. on an MTP shaker. • Wash assay plate with 2×200 μl TBS buffer per well. • Add 40 μl of 0.2% DMSO in kinase buffer to assay plate. • Add 40 μl sample solution (dissolved in kinase buffer—final conc. 22.5 μM). • Dissolve samples (1:3 ratio) in MTP. • Add 10 μl ATP dissolved in kinase buffer (200 μM) to samples (final conc. 40 μM ATP). Positive control: add 40 μl kinase buffer plus 10 μl 200 μM ATP. Negative control: add 40 μl kinase buffer plus 10 μl kinase buffer without ATP. […]

For orientation: IC50 means the point on the concentration scale where inhibition reaches its midpoint. A lower IC50 goes with inhibition by little substance.

T2 sequence (P08581 25-1390): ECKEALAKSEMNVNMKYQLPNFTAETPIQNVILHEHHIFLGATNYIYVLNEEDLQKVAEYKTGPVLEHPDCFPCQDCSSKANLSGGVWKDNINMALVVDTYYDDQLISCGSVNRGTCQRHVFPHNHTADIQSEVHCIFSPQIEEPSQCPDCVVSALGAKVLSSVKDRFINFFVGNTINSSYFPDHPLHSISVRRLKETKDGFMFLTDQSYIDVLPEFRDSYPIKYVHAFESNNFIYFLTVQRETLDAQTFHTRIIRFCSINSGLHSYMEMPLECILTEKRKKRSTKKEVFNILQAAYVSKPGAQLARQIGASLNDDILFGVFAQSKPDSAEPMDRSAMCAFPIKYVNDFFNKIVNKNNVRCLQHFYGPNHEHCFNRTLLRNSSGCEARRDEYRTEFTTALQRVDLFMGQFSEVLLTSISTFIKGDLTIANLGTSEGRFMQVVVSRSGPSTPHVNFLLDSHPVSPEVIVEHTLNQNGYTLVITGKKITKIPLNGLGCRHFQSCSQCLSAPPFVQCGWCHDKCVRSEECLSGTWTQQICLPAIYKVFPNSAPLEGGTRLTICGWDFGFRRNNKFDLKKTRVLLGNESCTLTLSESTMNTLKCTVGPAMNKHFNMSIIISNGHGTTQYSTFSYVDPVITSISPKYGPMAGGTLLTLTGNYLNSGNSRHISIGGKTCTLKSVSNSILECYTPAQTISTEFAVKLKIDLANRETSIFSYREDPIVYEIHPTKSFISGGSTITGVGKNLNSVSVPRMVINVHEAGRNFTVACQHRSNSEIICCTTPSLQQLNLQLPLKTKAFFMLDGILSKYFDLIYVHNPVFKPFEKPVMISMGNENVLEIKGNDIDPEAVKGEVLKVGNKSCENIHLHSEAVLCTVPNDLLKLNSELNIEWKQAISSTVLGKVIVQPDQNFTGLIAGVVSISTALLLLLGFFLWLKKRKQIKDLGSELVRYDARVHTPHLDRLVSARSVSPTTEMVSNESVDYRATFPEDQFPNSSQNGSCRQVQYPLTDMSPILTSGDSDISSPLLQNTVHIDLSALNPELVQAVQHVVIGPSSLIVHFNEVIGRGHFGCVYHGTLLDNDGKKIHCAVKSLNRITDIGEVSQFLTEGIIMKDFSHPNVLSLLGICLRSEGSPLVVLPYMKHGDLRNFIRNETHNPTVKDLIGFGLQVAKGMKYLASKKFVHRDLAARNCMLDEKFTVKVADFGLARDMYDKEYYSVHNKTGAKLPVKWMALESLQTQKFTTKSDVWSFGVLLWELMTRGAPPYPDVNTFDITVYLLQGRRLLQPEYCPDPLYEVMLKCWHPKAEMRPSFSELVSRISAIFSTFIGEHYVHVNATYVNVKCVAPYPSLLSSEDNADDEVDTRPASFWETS
T1 sequence (P12931 whole entry): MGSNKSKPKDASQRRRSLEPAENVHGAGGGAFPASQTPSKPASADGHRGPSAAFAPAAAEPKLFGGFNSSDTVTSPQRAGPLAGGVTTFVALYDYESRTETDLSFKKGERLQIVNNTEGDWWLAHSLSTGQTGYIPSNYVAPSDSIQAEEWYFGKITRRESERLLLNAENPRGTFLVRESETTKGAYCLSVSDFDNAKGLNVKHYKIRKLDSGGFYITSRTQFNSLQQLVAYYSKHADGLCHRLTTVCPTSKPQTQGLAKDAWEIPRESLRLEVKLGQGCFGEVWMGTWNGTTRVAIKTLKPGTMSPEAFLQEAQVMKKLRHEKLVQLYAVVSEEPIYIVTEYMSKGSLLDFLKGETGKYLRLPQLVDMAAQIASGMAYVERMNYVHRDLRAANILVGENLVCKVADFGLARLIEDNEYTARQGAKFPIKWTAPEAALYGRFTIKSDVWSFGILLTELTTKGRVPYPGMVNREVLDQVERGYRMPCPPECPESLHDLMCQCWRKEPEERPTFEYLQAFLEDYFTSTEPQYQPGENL

As to `O=S(=O)(NCCO)c1ccc(Nc2nccc(-c3[nH]c(-c4c(Cl)cc(OCCO)cc4Cl)nc3-c3cccc(Cl)c3)n2)cc1` [Example H2.3.3, 2-(2,6-dichloro-4-[2-hydroxyethoxy]phenyl)-4-(3-chlorophenyl)-5-(2-[4-(N-(2-hydroxyethyl)-ulfamoyl)phenylamino]pyrimidin-4-yl)-N—H-imidazole], the IC50 in assay [1] turned out to be 0.0067 µM.
`Clc1cccc(-c2nc(-c3c(Cl)cccc3Cl)[nH]c2-c2ccnc(Nc3ccc(N4CCOCC4)cc3)n2)c1` [Example H2.1.4, 2-(2,6-dichlorophenyl)-4-(3-chlorophenyl)-5-(2-[4-morpholinophenyl-amino]pyrimidin-4-yl)-N—H-imidazole]: the IC50 in assay [1] was found to be 0.0233 µM; in assay [2], 0.084 µM.
As for `CN(C)c1ccc(Nc2nccc(-c3[nH]c(-c4c(Cl)cccc4Cl)nc3-c3cccc(Cl)c3)n2)cc1` [Example H2.1.3, 2-(2,6-dichlorophenyl)-4-(3-chlorophenyl)-5-(2-[4-dimethylaminophenyl-amino]pyrimidin-4-yl)-N—H-imidazole], the IC50 is 0.031 µM in assay [1] and 0.167 µM in assay [2].
In the same order, the values of `CCN(CC)CCOc1ccc(Nc2nccc(-c3[nH]c(-c4c(Cl)cccc4Cl)nc3-c3ccc(Cl)cc3)n2)cc1` [Example H3.1.1, 2-(2,6-dichlorophenyl)-4-(4-chlorophenyl)-5-(2-[4-(2-diethylaminoethoxy)-phenylamino]pyrimidin-4-yl)-N—H-imidazole] are 0.0244 µM and 0.609 µM.
For `CCN(CC)CCOc1ccc(Nc2nccc(-c3[nH]c(-c4c(Cl)cccc4Cl)nc3-c3cccc(Br)c3)n2)cc1` [Example H1.1, 2-(2,6-dichlorophenyl)-4-(3-bromophenyl)-5-(2-[4-(2-diethylamino-ethoxy)phenylamino]pyrimidin-4-yl)-N—H-imidazole], in that order: 0.0067 µM and 0.005 µM.
On to `CCN(CC)CCOc1ccc(Nc2nccc(-c3nc(-c4c(Cl)cc(CO)cc4Cl)[nH]c3-c3cccc(Cl)c3)n2)cc1` [Example H2.2.1, 2-(2,6-dichloro-4-hydroxymethylphenyl)-4-(3-chlorophenyl)-5-(2-[4-(2-diethylaminoethoxy)-phenylamino]pyrimidin-4-yl)-N—H-imidazole], for which the half-maximal inhibitory concentration (IC50) was 0.0005 µM in assay [1] and 0.004 µM in assay [2].
Turning to `C#Cc1cccc(-c2nc(-c3c(Cl)cccc3Cl)[nH]c2-c2ccnc(Nc3ccc(OCCO)cc3)n2)c1` [Example H4.1.2, 2-(2,6-dichlorophenyl)-4-(3-ethynylphenyl)-5-(2-[4-(2-hydroxyethoxy)-phenylamino]pyrimidin-4-yl)-N—H-imidazole], the IC50 was found to be 0.0333 µM in assay [1] and 0.09 µM in assay [2].
`C[S+]([O-])c1ccc(Nc2nccc(-c3[nH]c(-c4c(Cl)cc(OCCO)cc4Cl)nc3-c3cccc(Cl)c3)n2)cc1` (stereo not drawn) [Example H2.3.2, 2-(2,6-dichloro-4-[2-hydroxyethoxy]phenyl)-4-(3-chlorophenyl)-5-(2-[4-methylsufinyl-phenylamino]pyrimidin-4-yl)-N—H-imidazole] returned an IC50 in assay [1] of 0.331 µM.
The same measure, in the same setting: the result for `CCN(CC)CCOc1ccc(Nc2nccc(-c3[nH]c(-c4c(Cl)cc(OCCO)cc4Cl)nc3-c3cccc(Cl)c3)n2)cc1` [Example H2.3.1, 2-(2,6-dichloro-4-[2-hydroxyethoxy]phenyl)-4-(3-chlorophenyl)-5-(2-[4-(2-diethylaminoethoxy)-phenylamino]pyrimidin-4-yl)-N—H-imidazole] reads 0.0016 µM.

The values are drawn from patent US7169781B2, “Imidazole derivatives and their use as pharmaceutical agents” (Hoffmann-La Roche Inc., priority 2003, dated 2007).
